Experimental data reported in US9205121B2, “Echinacea formulation” (Integria Healthcare (Australia) PTY LTD, priority 2004, dated 2015).

Experiments:
[1] = target: T1, P450 2A13 (Homo sapiens, UniProt Q16696); assay: metabolism of 3 by recombinant human P450; assay type: in vitro ADME; conditions: recombinant P450 2A13, preliminary screen
T1 construct: made in house; host or cells: Escherichia coli, bacterial membrane fraction
T1 sequence (Q16696 1-494): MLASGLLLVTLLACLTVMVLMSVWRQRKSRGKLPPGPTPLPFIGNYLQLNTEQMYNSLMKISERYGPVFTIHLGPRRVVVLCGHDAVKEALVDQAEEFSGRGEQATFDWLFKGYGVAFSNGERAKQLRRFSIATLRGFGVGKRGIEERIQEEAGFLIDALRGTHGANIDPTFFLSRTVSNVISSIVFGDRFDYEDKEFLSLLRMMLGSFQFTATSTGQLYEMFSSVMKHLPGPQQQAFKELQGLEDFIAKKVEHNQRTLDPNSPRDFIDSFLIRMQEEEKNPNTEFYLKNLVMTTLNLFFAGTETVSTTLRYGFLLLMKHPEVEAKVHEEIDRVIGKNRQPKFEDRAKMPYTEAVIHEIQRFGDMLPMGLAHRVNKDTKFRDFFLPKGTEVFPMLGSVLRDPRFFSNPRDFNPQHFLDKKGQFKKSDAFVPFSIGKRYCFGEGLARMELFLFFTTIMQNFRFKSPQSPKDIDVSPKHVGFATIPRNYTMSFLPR

[2] = system: human liver microsomes; assay type: in vitro ADME
Description: Livers were obtained from organ donors according to procedures is approved by the University of Queensland ethics committees. Samples of human liver were frozen in liquid nitrogen and stored at −70° C. prior to use. Microsomes were prepared according to the method of Guengerich except that microsomes were subjected to a final wash in 10 mM Tris-acetate, 1 mM EDTA and 20% glycerol pH 7.4 (resuspension buffer) to remove residual drugs (e.g. phenytoin—data not shown) present in donor livers.
Incubations (0.5 mL) with tissue fractions contained either the microsomal fraction at […] or the cytosolic fraction at 5 mg/mL protein in 100 mM potassium phosphate (pH 7.4) supplemented with is substrates (synthetic alkylamides 6, 11, 3 and 12 or the alkylamide fraction from the ethanolic liquid as required—see Figure legends for concentrations used) added from ethanolic stocks. Final ethanol concentrations were either 0.70% or 0.96% and were consistent in each assay. Reactions were initiated by the addition of an NADPH-generating system consisting of (final concentrations) […] NADP+, 10 mM glucose-6-phosphate and 0.5 μ/mL glucose-6-phosphate dehydrogenase. Negative controls and cytosolic incubations lacked an NADPH-generating system. Reaction mixtures were incubated at 37° C. with gentle agitation for the duration of each experiment. Reactions were terminated by addition of an equal volume of 100% methanol to a sample aliquot. Diluted samples were then centrifuged at 16000×g for 2 minutes and supernatants stored at −20° C. until analysis by LCMS.
Alkylamide concentrations in samples were determined by LCMS using a gradient HPLC system (Shimadzu LC1OAT) coupled to a quadrupole mass spectrometer (Shimadzu, QP8000a) operating in positive SIM mode with an APCI interface. The mobile phases were a mixture of water and acetonitrile. Alkylamides 6 and 3 were detected using a 65% acetonitrile isocratic run. Alkylamides 11 and 12 were detected using an 85% acetonitrile isocratic run. The alkylamide fraction was analysed using a gradient that increased from 20% to 40% acetonitrile over the first 5 minutes, then to 80% acetonitrile over the following 15 minutes and to 100% over the next 3 minutes followed by a re-equilibration period at 20% acetonitrile prior to the next injection. A similar gradient was used in scan and then SIM (M+1 of 248, 264, 246, 192, 280 and 282) modes to identify metabolites of 3. A C18, 3 m, 100×2.00 mm Phenomenex Luna column was used with a solvent flow rate of 0.3 mL/minute. All alkylamides were linear in the range 0.001-10 mg/mL (R^2>0.9) with a coefficient of variation between 4 and 5.
A number of pure, synthetic alkylamides (6, 11 3 and 12 as shown in FIG. 1) as well as the complex mixture of alkylamides obtained from an ethanolic extract of Echinacea were investigated for their susceptibility to liver P450-mediated degradation in microsomal preparations from four different subjects. The concentration of each substrate remaining at the given time points was quantified with LCMS and rates of substrate depletion were calculated as a percentage of the original concentration. […] From FIG. 3 it can be seen that there was a clear difference in the ability of the liver microsomal P450s to metabolise the synthetic 2-ene and the 2,4-diene alkylamides. […] In contrast, the 2,4-dienes were rapidly metabolised with only 9±2% of the original concentration of 3 and 2±1% of the original concentration of 12 detected after 2 hours. […]

consumption of 3 [1]: observed | rate of alkylamide metabolism relative to the rate found for 6 [2]: seven fold higher | % of initial levels still present ([2]; human, 2 h, pH 7.4): 66±26%
Compound: C/C=C\C=C/CC/C=C/C=C/C(=O)NCC(C)C [alkylamide 3, (2E,4E,8Z,10Z)—N-isobutyldodeca-2,4,8,10-tetraenamide]
